Reference: patent US7943658B2, “Indole indane amide compounds useful as CB2 agonists and method” (Bristol-Myers Squibb Company, priority 2007, dated 2011)

Legend:
hCB2 receptors = molecular target: T1, hCB2 receptors (Homo sapiens, UniProt P34972); assay: Filtration binding assay, [3H]CP55,940 displacement; conditions: membrane proteins or CHO cells expressing hCB2, read-out: CB2 binding Ki
T1 construct: expressed in transfected cells; host or cells: CHO cells
Description: Compound dilutions were carried out in duplicate in binding buffer [25 mM HEPES pH 7.4, 150 mM NaCl, 1 mM EDTA, 2 mM MgCl2, 0.25% BSA, […]]. Mix binding buffer, membrane proteins (or CHO cells expressing hCB2 receptors) together. Dispense 75 ul of mixture into each well in 96 well plates. Add 1 ul of drug in DMSO, or DMSO alone into each well. 1:500-1000 dilute the hot ligand [^3H]CP55,940 (specific activity=120 Ci/mmol; PerkinElmer Life and Analytical Sciences) in binding buffer and add 25 ul per well with either 5 ug/well cell membrane or 50000 cells/well. After incubation at room temperature for 2 hours, transfer the binding reaction onto filtration plates (UniFilter CF/C filter plate presoaked with 0.3% polyethylenimine; PerkinElmer Life and Analytical Sciences) using Packard Cell Harvester. Wash the filter with quarter strength of PBS (1:4 dilution of regular PBS with H2O) 8 times. Air dry the filter, add 40 ul MicroScint20 into each well, seal the top, and count with the TopCount. Bound radioactivity was analyzed for Ki using nonlinear regression analysis (Excel Xfit) with the Kd values for [3H]CP55,940 determined from saturation experiments.

[1] = molecular target: T2, CB2/CHO cell membrane proteins (Homo sapiens, UniProt P34972); assay: GTPgS binding assay; type: biochemical; conditions: [35S]GTPγS, CB2/CHO cell membranes
T2 construct: expressed in transfected cells; host or cells: CHO cells (membranes)
Description: Add 50 ul of reaction mixture containing 2 ug of CB2/CHO cell membrane proteins, 10 ul WGA-PVT beads (20 mg/ml), and 5 uM GDP in assay buffer (20 mM HEPES pH 7.4, 100 mM NaCl, 1 mM EDTA, 10 mM MgCl2, 10 ug/ml saponin, 0.25% BSA, and 1 uM leupeptin) into each well in 96 well white plate (Corning 3693, VWR#29444-312). Add 1 ul of testing compound into test, 1 ul of DMSO into basal, 1 ul of 200 uM CP55,940 into 100% activation, 1 ul of 1 mM cold GTPγS into NSB wells, respectively. Dilute [^35S]GTPγS (1:12.5 pre-diluted 1 uCi/ul stock, NEG030H, NEN) 1:1350 in binding buffer and add 25 ul into each well (200 pM final). Incubate at RT for 90 min and spin the plate at 1000 rpm for 5 min before counting with TopCount for 1-2 min.

T1 sequence (P34972 whole entry): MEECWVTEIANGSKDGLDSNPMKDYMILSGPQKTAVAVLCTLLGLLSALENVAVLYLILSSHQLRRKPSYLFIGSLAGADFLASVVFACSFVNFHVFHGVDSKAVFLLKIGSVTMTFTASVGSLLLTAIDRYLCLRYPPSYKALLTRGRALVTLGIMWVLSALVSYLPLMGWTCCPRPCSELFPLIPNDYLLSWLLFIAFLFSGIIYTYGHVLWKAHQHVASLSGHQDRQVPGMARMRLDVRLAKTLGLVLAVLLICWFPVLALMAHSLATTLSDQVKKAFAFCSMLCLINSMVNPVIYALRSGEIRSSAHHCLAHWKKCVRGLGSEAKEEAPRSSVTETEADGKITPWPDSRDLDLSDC
T2 sequence (P34972 whole entry): as above

SMILES	Ki (hCB2 receptors) [nM]	EC50 [1] [nM]
CC1(C)Cc2ccc(C#N)cc2[C@@H]1NC(=O)c1cc2cc(O)ccc2[nH]1 [Example 1, (R)—N-(6-Cyano-2,2-dimethyl-2,3-dihydro-1H-inden-1-yl)-5-hydroxy-1H-indole-2-carboxamide]	3	2.4 ± 0.55
CC1(C)Cc2ccc(C#N)cc2[C@@H]1NC(=O)c1cc2cc(Cl)ccc2n1CCN1CCOCC1 [Example 5, (R)-5-Chloro-N-(6-cyano-2,2-dimethyl-2,3-dihydro-1H-inden-1-yl)-1-(2-morpholinoethyl)-1H-indole-2-carboxamide]	39 ± 14	7.8 ± 2.5
Cn1c(C(=O)N[C@H]2c3cc(C#N)ccc3CC2(C)C)cc2cc(Cl)ccc21 [Example 3, (R)-5-Chloro-N-(6-cyano-2,2-dimethyl-2,3-dihydro-1H-inden-1-yl)-1-methyl-1H-indole-2-carboxamide]	7.6 ± 1.7	4.5 ± 1.2
CC1(C)Cc2ccc(C#N)cc2[C@@H]1NC(=O)c1cc2ccccc2[nH]1 [Example 6, (R)—N-(6-Cyano-2,2-dimethyl-2,3-dihydro-1H-inden-1-yl)-1H-indole-2-carboxamide]	2.4 ± 1.1	
CN(C)CCn1c(C(=O)N[C@H]2c3cc(C#N)ccc3CC2(C)C)cc2cc(Cl)ccc21 [Example 4, (R)-5-Chloro-N-(6-cyano-2,2-dimethyl-2,3-dihydro-1H-inden-1-yl)-1-(2-(dimethylamino)ethyl)-1H-indole-2-carboxamide]	60 ± 26	8.1 ± 2.2
CC1(C)Cc2ccc(C#N)cc2[C@@H]1NC(=O)c1cc2cc(Cl)ccc2[nH]1 [Example 2, (R)N-(6-Cyano-2,2-dimethyl-2,3-dihydro-1H-inden-1-yl)-5-chloro-1H-indole-2-carboxamide]	0.71 ± 0.18	2.2 ± 0.48
CC1(C)Cc2ccc(C#N)cc2[C@@H]1NC(=O)c1cc2cc(F)ccc2[nH]1 [Example 7, (R)—N-(6-Cyano-2,2-dimethyl-2,3-dihydro-1H-inden-1-yl)-5-fluoro-1H-indole-2-carboxamide]	0.24 ± 0.12	
CC1(C)Cc2ccc(C#N)cc2[C@H]1NC(=O)c1cc2cc(O)ccc2[nH]1 [Example 1A, (S)—N-(6-Cyano-2,2-dimethyl-2,3-dihydro-1H-inden-1-yl)-5-hydroxy-1H-indole-2-carboxamide]	1590	

Now from value to compound:

Ki (hCB2 receptors) [nM]	EC50 [1] [nM]	SMILES
50 ± 16		COCCNc1ccc2[nH]c(C(=O)N[C@H]3c4cc(C#N)ccc4CC3(C)C)cc2c1 [Example 10, (R)—N-(6-Cyano-2,2-dimethyl-2,3-dihydro-1H-inden-1-yl)-5-(2-methoxyethylamino)-1H-indole-2-carboxamide]
35 ± 12		COC(=O)c1ccc2c(c1)[C@H](NC(=O)c1cc3cc(Cl)ccc3[nH]1)C(C)(C)C2 [Example 11, (R)-Methyl-3-(5-chloro-1H-indole-2-carboxamido)-2,2-dimethyl-2,3-dihydro-1H-indene-5-carboxylate]
39 ± 14		CC1(C)Cc2ccc(C#N)cc2[C@@H]1NC(=O)c1cc2cc(N)ccc2[nH]1 [Example 9, (R)-5-Amino-N-(6-cyano-2,2-dimethyl-2,3-dihydro-1H-inden-1-yl)-1H-indole-2-carboxamide]
4.2 ± 1.6		CC1(C)Cc2ccc(C#N)cc2[C@@H]1NC(=O)c1cc2cc([N+](=O)[O-])ccc2[nH]1 [Example 8, (R)—N-(6-Cyano-2,2-dimethyl-2,3-dihydro-1H-inden-1-yl)-5-nitro-1H-indole-2-carboxamide]
